# Experimental data from paper PMC11489552, “Specific targeting of cancer vaccines to antigen-presenting cells via an endogenous TLR2/6 ligand derived from cysteinyl-tRNA synthetase 1” (Molecular Therapy, 2024).
# Where two headings read alike, the source gives them in different places.
# Assays:
# BMDCs [1] = test: In vitro antigen presentation ([…]/H-2K^b) in BMDCs; format: cell-based, C57BL/6 mice
# Description: To examine TLR2-specific antigen uptake and presentation, BMDCs were isolated from TLR2^WT and TLR2^–/– mice as described above. BMDC cells (3 × 10^5) were seeded in the 24-well plate. […] C8138), 20 or 40 μM dynasore (Sigma, no. 324410), 1 or 2 μM cathepsin S inhibitor (MCE, no. LY 3000328), 1 or 2 μM methyl-β-cyclodextrin (Sigma-Aldrich, no. C4555), or 1 or 2 mM amiloride (Merck, no. A7410) 1 mg/mL for 30 min. After pretreatment, labeled or native samples were treated in the wells, followed by antigen uptake or presentation analyzed by flow cytometry as described above.
# BMDCs [2] = format: cell-based, C57BL/6 mice
# TC-1 cells = test: In vitro cytotoxicity, CCK-8; format: cell-based, mouse; settings: different concentrations, CCK-8 18 h after treatment
# Description: (§1) The in vitro cytotoxicity test was assessed using Cell Counting Kit (CCK)-8 assays (Dojindo, no. CK04). DC2.4, Raw 264.7, and TC-1 cells were seeded onto 96-well plates for 24 h before treating them with different concentrations of EUCV and doxorubicin. A 10% CCK-8 solution was added to each well 18 h after treatment, and the plates were incubated at 37°C in a 5% CO2 atmosphere for 30 min to 4 h. The absorbance at 450 nm was detected using an instrument. Relative cell viability was calculated as a percentage of untreated control cells. To assess in vivo toxicity, E7 (100.6 nmol) and EUCV at 25 mpk (25.2 nmol) and 100 mpk (100.6 nmol) were subcutaneously injected into the backs of C57BL/6 mice. […] Mouse body weight was measured immediately after administration and at 24 h intervals, and at 48 h the mice were euthanized to measure spleen size to evaluate splenomegaly. After vaccine administration, blood was drawn at 2, 8, and 24 h, and cytokines IL-6 (BD, no. 555240) and IL-12p40 (BD, no. 555165) in serum were quantified using ELISA.
# Raw 264.7 cells = test: In vitro cytotoxicity, CCK-8; settings: different concentrations, CCK-8 18 h after treatment
# Description: as §1
# DC2.4 cells = test: In vitro cytotoxicity, CCK-8; settings: different concentrations, CCK-8 18 h after treatment
# Description: as §1
# [3] = tested on: bone marrow-derived dendritic cells (BMDCs); test: BMDC stimulation: costimulatory molecules and cytokines; format: cell-based, C57BL/6 mice; settings: 100 nM, 24 h, ELISA
# Description: Bone marrow was harvested from femurs and tibias of C57BL/6 mice. Red blood cells were lysed with Pharm Lyse lysing solution (BD, no. 555899), and the remaining cells were washed using DPBS (HyClone, no. SH30378.02), followed by centrifugation to the collection. Bone marrow cells were resuspended at a concentration of 1 × 10^6 cells/mL in RPMI-1640 medium supplemented with 10% FBS, 1% streptomycin-penicillin, and 20 ng/mL GM-CSF (R&D Systems, no. 415-ML-005). On day 3, add an additional medium of the same supplemented as described above. BMDCs were harvested on day 6 and seeded at 3 × 10^5 cells/mL in 24-well plates for stimulation.
# Differentiated THP-1, BMDC (3 × 10^5 cells per well) were seeded, and after 24 h starved with serum-free-medium for 1 h. […] To measure the inflammatory cytokine level, the culture medium was harvested, centrifuged at 500 × g for 10 min at 4°C, and the supernatant was separated. The expression of inflammatory cytokines was measured using hTNF-α (BD, no. 555212), IL-12p70 (BD, no. 555256), IL-12p40 (BD, no. 555165), and IL-6 (BD, no. 555240) ELISA kits according to the manufacturer’s instructions. To investigate the expression of costimulatory molecules on the cell surface, cells were harvested using dissociation buffer (5 mM EDTA in DPBS), washed, and stained with 1 μg/mL antibody, followed by flow cytometry analysis. […]
# [4] = Biodistribution to lymph nodes by IVIS imaging; format: in vivo, C57BL/6 mice; settings: subcutaneous, 5 nmol FAM-labeled, IVIS over time, n = 3 per group
# Description: Seven-week-old C57BL/6 mice were subcutaneously injected with 5 nmol FAM-E-, FAM-E+U-, or FAM-labeled EUCV, respectively. After 0.5, 2, 6, or 24 h, organs were collected and washed with PBS to remove any remaining blood. For biodistribution analysis, images were obtained using an In Vivo Imaging System (IVIS) Lumina II imaging systems (PerkinElmer; excitation 494 nm, emission 518 nm) and analyzed by Living Image software.
# [5] = Pharmacokinetics: plasma level of FAM-labeled antigen after injection; format: in vivo; settings: subcutaneous, 5 nmol 5-FAM-labeled, C57BL/6 mice, n = 3 per group, plasma diluted 1:20 in PBS, fluorescence Ex/Em 494/518 nm, followed for 24 h
# Description: Seven-week-old mice were intravenously or subcutaneously injected with 5 nmol labeled SLP or protein. At the indicated time point, blood was collected using ophthalmic bleeding into heparin-coated micro hematocrit capillary tubes (Fisherbrand, no. 22-362574). After being transferred blood into a microtube, plasma was isolated from blood by centrifugation at 4°C for 10 min at 1,000 × g to eliminate the cells, and then centrifugation at 4°C for 15 min 2,000 × g for removed platelets. The plasma was diluted 1:20 into PBS and measured on Infinite 200 PRO (TECAN) against a standard curve of analytes diluted into PBS (Ex/Em: 494/518 nm). All plasma was normalized to the maximum fluorescence detected in the individual injection sample and plotted as percent injection dose (% ID) versus time. The half-life was calculated by fitting the intravenous plasma curve using C=C0×e^–kt . The subcutaneous curve was fit to C=[F×ka×C0/VD(ka–k)]×(e^–k×t–e^–ka×t ), where C is the plasma concentration of indicated times, C0 is the initial serum concentration, k is the elimination rate constant, F is the systemic absorbance, ka is the absorption rate constant, VD is the volume of distribution.[72] The curve graphs were represented using nonlinear regression on GraphPad Prism.
# [6] = tested on: spleen cells re-stimulated with epitope peptides; test: SLP screening, IFN-γ ELISpot; format: in vivo, C57BL/6 mice; settings: 20 μg SLP with U (100 μg) s.c. twice, spleen cells 7 days after final immunization
# Description: Seven-week-old C57BL/6 mice were immunized subcutaneously in the right back twice at 1-week intervals using SLPs (HPV16 E6_23–42, E6_43–62, E6_123–143, E75–25, E7_43–62, and E7_76–95; 20 μg per SLP) with U (100 μg). After 7 days at final immunization, cells were isolated from the spleen and seeded in the ELISpot well in triplicates (5 × 10^5 cells per well) with 10 μg/mL of re-stimulatory 8–9 mer epitope peptides (HPV16 E6_29–37, E6_49–57, E6_129–138, E7_11–19, E7_49–57, and E7_82–90), respectively. Antigen-specific immune responses were detected by AID EliSpot Reader (AID, no. ELR08).
# TC-1 tumors = test: TC-1 tumor model, combination with anti-PD-1 blockade; format: in vivo, C57BL/6 mice
# Description: TC-1 tumor cells expressing HPV16-E6 and E7 proteins and E.G7-OVA cells expressing chicken OVA were used to generate of mouse tumor model. For the therapeutic cancer vaccine model, 7-week-old C57BL/6 mice were subcutaneously injected on the right flank with TC-1 cells (1 × 10^5 cells per mouse) in 100 μL DPBS. On day 6 when tumors measured 100 mm^3 […], treatment with 5 nmol of E, E+U, and EUCV was initiated as indicated in the schedule. On day 20 mice were sacrificed, and tumor tissues were collected for TILs analysis. For the anti-PD-1 antibody combination model, 5 nmol of E and EUCV was injected subcutaneously, and 200 μg of anti-PD-1 antibody (BioXcell, clone 29F.1A12, no. BE0273) was injected intraperitoneally as indicated in the schedule. On day 20 mice were sacrificed, and tumor tissues were collected for qRT-PCR and immunohistochemistry analysis. Survival was recorded by observing the mice up to 60 days and mice were euthanized when tumor volume reached 1,500 mm^3. For the E.G7-OVA tumor model, 7-week-old C57BL/6 mice were subcutaneously injected on the right flank with E.G7-OVA cells (1 × 10^6 cells per mouse) in 100 μL DPBS. On day 3 when the tumor measured 100 mm^3 […], treatment with 5 nmol of O, O+U, and OUCV was initiated as indicated in the schedule. On day 17 mice were sacrificed, and tumor tissue was collected for TIL analysis. In all experiments, tumors were measured 3 times a week using a caliper and calculated using the formula V(volume:mm^3)=L(length)×W^2(width)×0.52 ,[5] and mice were euthanize when tumor volume reached 1,500 mm^3.
# hTLR2/6 = molecular target: T1, hTLR2/6 (Homo sapiens, UniProt O60603+Q9Y2C9); test: HEK-Blue SEAP assay (NF-κB); format: cell-based; settings: HEK-Blue hTLR2/6 cells, 24 h
# T1 construct: host or cells: HEK-Blue hTLR2/6 (HEK293-derived NF-kB/SEAP reporter cells)
# Description: HEK-Blue hTLR2/6 (Invivogen, no. hkb-htlr26), hTLR2/1 (Invivogen, no. hkb-htlr21), and hTLR4 (Invivogen, no. hkb-htlr4) cells were cultured in DMEM (HyClone, no. SH30243.01) supplemented with 10% heat-inactivated FBS, 1% penicillin-streptomycin, and 100 μg/mL normocin (Invivogen, no. ant-nr-1), with added HEK-Blue Selection (Invivogen, no. hb-sel) added in medium after the cells were passaged twice. For the SEAP assay, HEK-Blue cells were harvested and resuspended to 2.8 × 10^5 cells/mL in a culture medium. […] The plates were then incubated for 24 h at 37°C, and 5% CO2 and the supernatant was collected. After removing the remaining cells by centrifugation, 20 μL of supernatant was transferred into a 96-well plate with 180 μL QUNATI-Blue solution (Invivogen, no. rep-pbs). All plates were incubated at 37°C, 5% CO2 for 3–4 h, and absorbance was measured at 620 nm with a microplate reader (TECAN, no. 30087502).
# [7] = In vivo toxicity (body weight, spleen, serum cytokines); design: species or system C57BL/6 mice; settings: s.c.; EUCV 25.2 and 100.6 nmol, Pam2CSK4 100.6 nmol, poly(I:C) 2.5 nmol; serum at 2, 8, 24 h, ELISA
# [8] = BMDCs pretreated 30 min with inhibitor, then 100 nM O, O+U or OUCV, flow cytometry
# [9] = BMDCs pretreated 30 min with inhibitor at various concentrations, then FAM-labeled sample 100 nM 24 h, flow cytometry
# T1 sequence (O60603 21-784): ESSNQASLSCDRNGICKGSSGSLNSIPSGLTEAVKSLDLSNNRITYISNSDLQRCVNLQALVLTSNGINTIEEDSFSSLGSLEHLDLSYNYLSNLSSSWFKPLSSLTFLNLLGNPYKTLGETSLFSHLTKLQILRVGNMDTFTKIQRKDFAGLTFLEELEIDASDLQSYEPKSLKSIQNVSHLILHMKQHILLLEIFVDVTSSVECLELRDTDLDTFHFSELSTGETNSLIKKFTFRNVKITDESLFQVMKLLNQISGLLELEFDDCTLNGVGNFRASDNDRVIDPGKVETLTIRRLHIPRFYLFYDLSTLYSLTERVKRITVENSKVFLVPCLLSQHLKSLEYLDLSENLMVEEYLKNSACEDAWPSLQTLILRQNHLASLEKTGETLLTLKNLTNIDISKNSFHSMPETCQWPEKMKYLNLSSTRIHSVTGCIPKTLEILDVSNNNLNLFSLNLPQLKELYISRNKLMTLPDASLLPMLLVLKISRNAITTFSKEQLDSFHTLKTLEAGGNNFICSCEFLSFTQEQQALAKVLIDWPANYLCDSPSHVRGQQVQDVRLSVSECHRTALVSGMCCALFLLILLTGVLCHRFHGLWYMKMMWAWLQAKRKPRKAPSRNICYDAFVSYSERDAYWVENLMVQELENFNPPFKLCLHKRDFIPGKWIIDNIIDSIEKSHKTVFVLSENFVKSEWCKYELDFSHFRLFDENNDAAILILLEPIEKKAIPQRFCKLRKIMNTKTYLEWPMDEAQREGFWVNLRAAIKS
# T1 sequence (Q9Y2C9 32-796): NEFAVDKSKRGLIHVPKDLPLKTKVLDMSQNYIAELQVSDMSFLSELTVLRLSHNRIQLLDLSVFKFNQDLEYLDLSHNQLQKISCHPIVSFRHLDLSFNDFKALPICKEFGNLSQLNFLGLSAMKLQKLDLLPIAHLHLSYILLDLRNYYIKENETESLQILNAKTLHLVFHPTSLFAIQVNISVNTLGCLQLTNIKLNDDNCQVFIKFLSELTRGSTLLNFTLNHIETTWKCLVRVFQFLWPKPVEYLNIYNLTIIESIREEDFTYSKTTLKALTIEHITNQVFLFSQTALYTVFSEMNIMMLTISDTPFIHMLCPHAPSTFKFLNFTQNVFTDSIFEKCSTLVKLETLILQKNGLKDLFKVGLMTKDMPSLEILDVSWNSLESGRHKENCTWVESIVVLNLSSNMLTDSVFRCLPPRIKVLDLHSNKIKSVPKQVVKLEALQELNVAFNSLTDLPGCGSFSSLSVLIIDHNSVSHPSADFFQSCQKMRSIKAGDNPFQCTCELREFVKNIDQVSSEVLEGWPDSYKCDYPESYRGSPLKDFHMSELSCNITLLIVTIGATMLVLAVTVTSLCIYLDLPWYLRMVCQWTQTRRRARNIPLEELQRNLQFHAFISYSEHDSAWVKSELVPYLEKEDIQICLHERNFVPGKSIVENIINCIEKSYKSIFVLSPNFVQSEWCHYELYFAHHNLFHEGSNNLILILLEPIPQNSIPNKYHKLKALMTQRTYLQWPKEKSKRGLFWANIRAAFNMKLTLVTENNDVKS
compound,measurement,setting,value
"CN(C)CCCN1c2ccccc2Sc2ccc(Cl)cc21 [CM, chlorpromazine]",effect of inhibitor on antigen presentation (SIINFEKL/H-2K^b),BMDCs [1]; [8],reduced
same,effect of endocytosis/processing inhibitor on E+U and EUCV uptake,BMDCs [2]; [9],reduced E+U and EUCV uptake
CNC(=O)O[C@H]1COc2ccc(N3CCN(C4COC4)CC3)cc2[C@@H]1NC(=O)c1ccc(F)cc1 [CS],effect of inhibitor on antigen presentation (SIINFEKL/H-2K^b),BMDCs [1],reduction in antigen presentation
same,effect of endocytosis/processing inhibitor on E+U and EUCV uptake,BMDCs [2],no change
N=C(N)NC(=O)c1nc(Cl)c(N)nc1N [amiloride],effect of endocytosis/processing inhibitor on E+U and EUCV uptake,BMDCs [2]; [9],no change
COc1cccc2c1C(=O)c1c(O)c3c(c(O)c1C2=O)C[C@@](O)(C(=O)CO)C[C@@H]3O[C@H]1C[C@H](N)[C@H](O)[C@H](C)O1 [doxorubicin],cytotoxicity (relative cell viability),TC-1 cells,concentration-dependent toxicity
same,cytotoxicity (relative cell viability),Raw 264.7 cells,concentration-dependent toxicity
same,cytotoxicity (relative cell viability),DC2.4 cells,concentration-dependent toxicity
O=C(N/N=C/c1ccc(O)c(O)c1)c1cc2ccccc2cc1O [dynasore],effect of inhibitor on antigen presentation (SIINFEKL/H-2K^b),BMDCs [1]; [8],reduced
same,effect of endocytosis/processing inhibitor on E+U and EUCV uptake,BMDCs [2]; [9],reduced E+U and EUCV uptake
GQAEPDRAHYNIVTFCCKCD [HPV-16 E7_43–62 synthetic long peptide antigen],secretion of IL-12p70 and IL-6,[3],absent
same,"distribution among inguinal, axillary and iliac lymph nodes",[4],diffused distribution to axillary and iliac LNs beyond inguinal LNs near the injection site
same,time at which the blood concentration peaked,[5],0.25 h
same,IFN-γ activity among E6- and E7-derived SLPs,[6],highest interferon gamma (IFN-γ) activity
same,mortality by day 26,"TC-1 tumors; TC-1 tumor-bearing mice, 5 nmol s.c. days 6 and 13, anti-PD-1 200 μg i.p. days 6, 9, 12, 15, n = 8",100%
same,Complete regression (mice / group),"TC-1 tumors; TC-1 tumor-bearing mice, 60 days, n = 8 per group, printed in Figure 5C",0/8
same,tumor growth,"TC-1 tumors; TC-1 tumors, 5 nmol s.c. days 6 and 13, with or without anti-PD-1 blockade, n = 8",Neither E alone nor the combination of E+αPD-1 blockade significantly suppressed tumor growth
Pam2CSK4,"nuclear factor κB induction (SEAP, OD620)",hTLR2/6,induced nuclear factor κB in TLR2/6-expressing cells
same,"bloodstream cytokines (IL-6, IL-12p40), systemic toxicity",[7],significant inflammatory cytokine expression
methyl-β-cyclodextrin [Mbcd],effect of endocytosis/processing inhibitor on E+U and EUCV uptake,BMDCs [2]; [9],no change
poly(I:C),"bloodstream cytokines (IL-6, IL-12p40), systemic toxicity",[7],significant inflammatory cytokine expression
